We go through 28 compounds from US12435060B2, “Acylamino bridged heterocyclic compound, and composition and application thereof” (BEIJING SCITECH-MQ PHARMACEUTICALS LIMITED, priority 2019, dated 2025).

This assay has as its system HT29 cells. Briefly: Inhibition of cell necrosis (CCK8 method), induced programmed necrosis of HT29 cells. The assay is classed as cell-based. The note with it: Homo sapiens, HT-29; rescue from necrosis induced by TNF-α 20 ng/mL, AT-406 1 μM, Z-VAD-FMK 20 μM; 16-20 hours; CCK-8, OD 450 nm. Put shortly: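 HT29 cells in McCOY's 5A with 10% FBS were pre-treated for 30 min with compound (9 fourfold steps, 25000 to 0.38 nM final, 0.25% DMSO). Necrosis was then induced with TNF-α 20 ng/mL, AT-406 1 μM and Z-VAD-FMK 20 μM for 16-20 h. Viability was read by CCK-8 OD450, normalized between uninduced and induced wells, and IC50 was curve-fitted.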

Compound `COCCCOc1ccc(C(F)(F)F)c(-c2ccnc(NC(=O)c3nnc(Cc4ccccc4F)[nH]3)c2)c1` [Example 296, 5-(2-fluorobenzyl)-N-(4-(5-(3-methoxypropoxy)-2-(trifluoromethyl)phenyl)pyridin-2-yl)-4H-1,2,4-triazole-3-carboxamide] displayed a 50% inhibitory concentration (IC50) not above 100 nM. Consider `COCCCOc1ccc(C(F)(F)F)c(-c2ccnc(NC(=O)c3nnc(CC4CCCC4)[nH]3)c2)c1` [Example 297, 5-(cyclopentylmethyl)-N-(4-(5-(3-methoxypropoxy)-2-(trifluoromethyl)phenyl)pyridin-2-yl)-4H-1,2,4-triazole-3-carboxamide], for which the IC50 is not above 100 nM.

In turn, `COCCCOc1ccc(C(F)(F)F)c(-c2ccnc(NC(=O)c3nnc(CC4CCCCC4)[nH]3)c2)c1` [Example 298, 5-(cyclohexylmethyl)-N-(4-(5-(3-methoxypropoxy)-2-(trifluoromethyl)phenyl)pyridin-2-yl)-4H-1,2,4-triazole-3-carboxamide] displayed an IC50 not above 100 nM. The compound `O=C(Nc1cc(-c2cc(OCC3CCOCC3)ccc2C(F)(F)F)ccn1)c1nnc(Cc2ccccc2)[nH]1` [Example 299, 5-benzyl-N-(4-(5-((tetrahydro-2H-pyran-4-yl)methoxy)-2-(trifluoromethyl)phenyl)pyridin-2-yl)-4H-1,2,4-triazole-3-carboxamide] displayed an IC50 not above 100 nM. `O=C(Nc1cc(-c2cc(OCC3CCOCC3)ccc2C(F)(F)F)ccn1)c1nnc(Cc2ccccc2F)[nH]1` [Example 300, 5-(2-fluorobenzyl)-N-(4-(5-((tetrahydro-2H-pyran-4-yl)methoxy)-2-(trifluoromethyl)phenyl)pyridin-2-yl)-4H-1,2,4-triazole-3-carboxamide] registered an IC50 not above 100 nM. Compound `O=C(Nc1cc(-c2cc(OCC3CCOCC3)ccc2C(F)(F)F)ccn1)c1nnc(Cc2cccc(F)c2)[nH]1` [Example 301, 5-(3-fluorobenzyl)-N-(4-(5-((tetrahydro-2H-pyran-4-yl)methoxy)-2-(trifluoromethyl)phenyl)pyridin-2-yl)-4H-1,2,4-triazole-3-carboxamide] showed an IC50 not above 100 nM. As for `O=C(Nc1cc(-c2cc(OCC3CCOCC3)ccc2C(F)(F)F)ccn1)c1nnc(Cc2ccc(F)cc2)[nH]1` [Example 302, 5-(4-fluorobenzyl)-N-(4-(5-((tetrahydro-2H-pyran-4-yl)methoxy)-2-(trifluoromethyl)phenyl)pyridin-2-yl)-4H-1,2,4-triazole-3-carboxamide], the figure is not above 100 nM. Compound `O=C(Nc1cc(-c2cc(OCC3CCOCC3)ccc2C(F)(F)F)ccn1)c1nnc(CC2CCCC2)[nH]1` [Example 303, 5-(cyclopentylmethyl)-N-(4-(5-((tetrahydro-2H-pyran-4-yl)methoxy)-2-(trifluoromethyl)phenyl)pyridin-2-yl)-4H-1,2,4-triazole-3-carboxamide] returned an IC50 not above 100 nM.

In turn, `O=C(Nc1cc(-c2cc(OCC3CCOCC3)ccc2C(F)(F)F)ccn1)c1nnc(CC2CCCCC2)[nH]1` [Example 304, 5-(cyclohexylmethyl)-N-(4-(5-((tetrahydro-2H-pyran-4-yl)methoxy)-2-(trifluoromethyl)phenyl)pyridin-2-yl)-4H-1,2,4-triazole-3-carboxamide] returned a half-inhibitory concentration (IC50) not above 100 nM. As for `O=C(Nc1cc(-c2cc(OCCC3CCOCC3)ccc2C(F)(F)F)ccn1)c1nnc(Cc2ccccc2)[nH]1` [Example 305, 5-benzyl-N-(4-(5-(2-(tetrahydro-2H-pyran-4-yl)ethoxy)-2-(trifluoromethyl)phenyl)pyridin-2-yl)-4H-1,2,4-triazole-3-carboxamide], the figure is not above 100 nM; as for `O=C(Nc1cc(-c2cc(OCCC3CCOCC3)ccc2C(F)(F)F)ccn1)c1nnc(Cc2ccccc2F)[nH]1` [Example 306, 5-(2-fluorobenzyl)-N-(4-(5-(2-(tetrahydro-2H-pyran-4-yl)ethoxy)-2-(trifluoromethyl)phenyl)pyridin-2-yl)-4H-1,2,4-triazole-3-carboxamide], not above 100 nM. In the case of `O=C(Nc1cc(-c2cc(OCCC3CCOCC3)ccc2C(F)(F)F)ccn1)c1nnc(Cc2cccc(F)c2)[nH]1` [Example 307, 5-(3-fluorobenzyl)-N-(4-(5-(2-(tetrahydro-2H-pyran-4-yl)ethoxy)-2-(trifluoromethyl)phenyl)pyridin-2-yl)-4H-1,2,4-triazole-3-carboxamide], the half-inhibitory concentration (IC50) was not above 100 nM. Take `O=C(Nc1cc(-c2cc(OCCC3CCOCC3)ccc2C(F)(F)F)ccn1)c1nnc(Cc2ccc(F)cc2)[nH]1` [Example 308, 5-(4-fluorobenzyl)-N-(4-(5-(2-(tetrahydro-2H-pyran-4-yl)ethoxy)-2-(trifluoromethyl)phenyl)pyridin-2-yl)-4H-1,2,4-triazole-3-carboxamide]: the IC50 was not above 100 nM.

For `O=C(Nc1cc(-c2cc(OCCC3CCOCC3)ccc2C(F)(F)F)ccn1)c1nnc(CC2CCCC2)[nH]1` [Example 309, 5-(cyclopentylmethyl)-N-(4-(5-(2-(tetrahydro-2H-pyran-4-yl)ethoxy)-2-(trifluoromethyl)phenyl)pyridin-2-yl)-4H-1,2,4-triazole-3-carboxamide], the IC50 was not above 100 nM. As for `O=C(Nc1cc(-c2cc(OCCC3CCOCC3)ccc2C(F)(F)F)ccn1)c1nnc(CC2CCCCC2)[nH]1` [Example 310, 5-(cyclohexylmethyl)-N-(4-(5-(2-(tetrahydro-2H-pyran-4-yl)ethoxy)-2-(trifluoromethyl)phenyl)pyridin-2-yl)-4H-1,2,4-triazole-3-carboxamide], the figure is not above 100 nM. As for `C#Cc1ccc(OCCOC(C)(C)C)cc1-c1ccnc(NC(=O)c2nnc(Cc3ccccc3)[nH]2)c1` [Example 311, 5-benzyl-N-(4-(5-(2-(tert-butoxy)ethoxy)-2-ethynylphenyl)pyridin-2-yl)-4H-1,2,4-triazole-3-carboxamide], the figure is 100 to 1000 nM; as for `CC(C)(O)CCCOc1ccc(F)c(-c2ccnc(NC(=O)c3nnc(Cc4ccccc4)[nH]3)c2)c1` [Example 312, 5-benzyl-N-(4-(2-fluoro-5-((4-hydroxy-4-methylpentyl)oxy)phenyl)pyridin-2-yl)-4H-1,2,4-triazole-3-carboxamide], 100 to 1000 nM; as for `CC(C)(O)CCCOc1ccc(F)c(-c2ccnc(NC(=O)c3nnc(Cc4ccccc4F)[nH]3)c2)c1` [Example 313, 5-(2-fluorobenzyl)-N-(4-(2-fluoro-5-((4-hydroxy-4-methylpentyl)oxy)phenyl)pyridin-2-yl)-4H-1,2,4-triazole-3-carboxamide], 100 to 1000 nM.

Take `CCC(O)(CC)CCCOc1ccc(F)c(-c2ccnc(NC(=O)c3nnc(Cc4ccccc4F)[nH]3)c2)c1` [Example 314, N-(4-(5-((4-ethyl-4-hydroxyhexyl)oxy)-2-fluorophenyl)pyridin-2-yl)-5-(2-fluorobenzyl)-4H-1,2,4-triazole-3-carboxamide]: the half-inhibitory concentration (IC50) fell in the range of 100 to 1000 nM. As for `O=C(Nc1cc(-c2cc(OCC3CCOCC3)ccc2F)ccn1)c1nnc(Cc2ccccc2F)[nH]1` [Example 315, 5-(2-fluorobenzyl)-N-(4-(2-fluoro-5-((tetrahydro-2H-pyran-4-yl)methoxy)phenyl)pyridin-2-yl)-4H-1,2,4-triazole-3-carboxamide], the IC50 lay within 100 to 1000 nM. For the compound `O=C(Nc1cc(-c2cc(OCCC3CCOCC3)ccc2F)ccn1)c1nnc(Cc2ccccc2F)[nH]1` [Example 316, N-(4-(2-fluoro-5-(2-(tetrahydro-2H-pyran-4-yl)ethoxy)phenyl)pyridin-2-yl)-5-(2-fluorobenzyl)-4H-1,2,4-triazole-3-carboxamide], the IC50 was in the range of 100 to 1000 nM. `O=C(Nc1cc(-c2cc(OCCC3CCOCC3)ccc2F)ccn1)c1nnc(CC2CCCCC2)[nH]1` [Example 317, 5-(cyclohexylmethyl)-N-(4-(2-fluoro-5-(2-(tetrahydro-2H-pyran-4-yl)ethoxy)phenyl)pyridin-2-yl)-4H-1,2,4-triazole-3-carboxamide] came in with an IC50 not above 100 nM. `CC(C)(O)CCCOc1ccc(F)c(-c2cc(NC(=O)c3nnc(Cc4ccccc4F)[nH]3)ncc2F)c1` [Example 318, N-(5-fluoro-4-(2-fluoro-5-((4-hydroxy-4-methylpentyl)oxy)phenyl)pyridin-2-yl)-5-(2-fluorobenzyl)-4H-1,2,4-triazole-3-carboxamide] came in with an IC50 not above 100 nM. As for `CC(C)(O)CCCOc1ccc(F)c(-c2cc(NC(=O)c3nnc(CC4CCCCC4)[nH]3)ncc2F)c1` [Example 319, 5-(cyclohexylmethyl)-N-(5-fluoro-4-(2-fluoro-5-((4-hydroxy-4-methylpentyl)oxy)phenyl)pyridin-2-yl)-4H-1,2,4-triazole-3-carboxamide], the figure is not above 100 nM. The figure for `CC(C)(O)CCCOc1ccc(F)c(-c2cc(NC(=O)c3nnc(Cc4ccccc4F)[nH]3)ncc2Cl)c1` [Example 320, N-(5-chloro-4-(2-fluoro-5-((4-hydroxy-4-methylpentyl)oxy)phenyl)pyridin-2-yl)-5-(2-fluorobenzyl)-4H-1,2,4-triazole-3-carboxamide] is 100 to 1000 nM.

As for `CC(C)(O)CCCOc1ccc(F)c(-c2cc(NC(=O)c3nnc(CC4CCCCC4)[nH]3)ncc2Cl)c1` [Example 321, N-(5-chloro-4-(2-fluoro-5-((4-hydroxy-4-methylpentyl)oxy)phenyl)pyridin-2-yl)-5-(cyclohexylmethyl)-4H-1,2,4-triazole-3-carboxamide], the IC50 fell in the range of 100 to 1000 nM.

Compound `Cc1cnc(NC(=O)c2nnc(Cc3ccccc3F)[nH]2)cc1-c1cc(OCCCC(C)(C)O)ccc1F` [Example 322, N-(4-(2-fluoro-5-((4-hydroxy-4-methylpentyl)oxy)phenyl)-5-methylpyridin-2-yl)-5-(2-fluorobenzyl)-4H-1,2,4-triazole-3-carboxamide] displayed an IC50 of 100 to 1000 nM.

`CCC(O)(CC)CCCOc1ccc(F)c(-c2cc(NC(=O)c3nnc(Cc4ccccc4F)[nH]3)ncc2Cl)c1` [Example 323, N-(5-chloro-4-(5-((4-ethyl-4-hydroxyhexyl)oxy)-2-fluorophenyl)pyridin-2-yl)-5-(2-fluorobenzyl)-4H-1,2,4-triazole-3-carboxamide] showed an IC50 of 100 to 1000 nM.
